Test results reported in patent publication US20050288347A1, “Certain triazole-based compounds, compositions, and uses thereof” (priority 2004, published 2005).
Entries after “also recorded” stand apart in the source; their conditions may differ. Where two headings read alike, the source gives them in different places.

Tested on: protein kinase
Assay: HTS ATP-utilizing enzyme assay, off-chip mobility-shift format (Caliper HTS 250)
Assay type: biochemical, human
Conditions: for Kinase: kinase(s) for which the compound exhibits protein kinase inhibitory activity, active = greater than three-sigma from the mean activity of inactive compounds
Description: The following procedures describe the reagent and plate preparation for a HTS of an ATP-utilizing enzyme, such as a protein kinase, run in an off-chip mobility-shift assay format. The following provides an HTS protocol for running a protein kinase HTS screen on a Caliper HTS 250 microfluidics system. The following parameters are dependent on the protein kinase used and can be determined by one skilled in the art as part of a typical assay development process. For example, the peptide substrate used can be identified from the current literature, by screening a peptide library of potential protein kinase substrates, or by other applicable means accepted in the field.
The following table provides typical screen assay parameters appropriate for a Caliper HTS 250 microfluidics system.
The reagents and buffers listed in the following table are generally applicable for developing and running an HTS screen on a human protein kinase using the Caliper HTS 250 system.
The following reagents were prepared using the previously described buffers.
A 2× Master Buffer solution was prepared by combining 200 mL of 1 M HEPES, pH 7.5, 2 mL of 10% Triton X-100, 20 mL of 10% BSA, and 778 mL of H2O.
Assays to determine the kinase inhibitory activity of chemical entities of the present disclosure were performed using a Caliper HTS 250 microfluidics device, Greiner U-bottom assay plates, a Multidrop for transfer of reagents, and Biomek FX (AMNCBM03) software. Initially, 2.4 μL of a 1 mM solution of a test compound in 100% DMSO was added to a well of the Greiner U-bottom plate. A single Greiner U-bottom plate having 24×16 wells could include multiple test compounds. […] Using the Biomek FX, 10 μL of 0.5 M EDTA was added by the span-8 to wells, indicated as 100% Control and 2.4 μL of 100% DMSO was added by the span-8 to wells, indicated as 0% Control. […] The total reaction volume in each well was 25 μL, and the concentration of the test compound was 10 μM. The assay plate was incubated for 2.5 hrs at 20° C. to 22° C. […] The inhibition of the ATP-utilizing enzyme, such as a particular protein kinase, was determined by measuring the ratio of the peptide substrate to phosphorylated product for each well of the assay plate using the Caliper HTS 250 system.
The use of three-sigma statistical limits represents a conservative method for declaring potential hits among targets. The three-sigma activity, as well as the mean population activity, can be different for each target enzyme.

[1] = test compound 10 μM, active = activity greater than three-sigma from the mean of the predominately inactive population for that enzyme

Compound	protein kinase against which the compound exhibits inhibitory activity (Table 3) [1]	Kinase (test compound 10 μM)	also measured
COc1ccccc1-n1c(SCCCC(=O)O)nnc1-c1ccccc1 [4-(4-(2-methoxyphenyl)-5-phenyl-4H-1,2,4-triazol-3-ylthio)butanoic acid]	c-TAK1		
COCCn1c(SCC(=O)NCc2ccc3c(c2)OCO3)nnc1-c1cc2ccccc2cc1O		AURORA-A	
O=C(CSc1nnc(-c2ccc(O)cc2)n1Cc1ccco1)N1c2ccccc2Sc2ccccc21		GSK3-β and GSK3-α and MSK2	
CCn1c(SCC(=O)c2cccs2)nnc1-c1ccc(O)cc1		MSK1 and MSK2 and GSK3-β	
CCn1c(SCC(=O)Nc2sc(C)c(C)c2C#N)nnc1-c1ccc(S(=O)(=O)N2CCOCC2)cc1		DAPK1	
Fc1ccc(CSc2nnc(-c3cccs3)[nH]2)cc1 [3-(4-fluorobenzylthio)-5-(thiophen-2-yl)-4H-1,2,4-triazole]	AURORA-A; also recorded: FLT-3; also recorded: DYRK2		
Sc1nnc(C2CCCCC2)n1-c1cccc(Cl)c1 [4-(3-chlorophenyl)-5-cyclohexyl-4H-1,2,4-triazole-3-thiol]		AURORA-A	
CCc1nnc(SCc2ccccc2)n1Cc1ccc2c(c1)OCO2 [4-(benzo[d][1,3]dioxol-5-ylmethyl)-3-(benzylthio)-5-ethyl-4H-1,2,4-triazole]	GSK3-β; also recorded: GSK3-α		
CCOc1ccc(NCc2nnc(SCCN3CCOCC3)n2-c2ccc(C)cc2)cc1	FYN		
Cc1ccc(-n2c(CNc3ccc(F)cc3)nnc2SCC(=O)Nc2ccccc2C(F)(F)F)cc1		AKT1	
N#CCSc1nnc(-c2cccnc2)n1Cc1ccccc1 [2-(4-benzyl-5-(pyridin-3-yl)-4H-1,2,4-triazol-3-ylthio)acetonitrile]		AURORA-A	
Cc1ccc(-n2c(SCCO)nnc2-c2ccncc2)cc1 [2-(5-(pyridin-4-yl)-4-p-tolyl-4H-1,2,4-triazol-3-ylthio)ethanol]	GSK3-β; also recorded: GSK3-α		
CCn1c(COc2ccc(Cl)cc2)nnc1SCCN1CCCCC1	INSR and PDGFRR-α and CHEK1		
Fc1ccc(NCc2nnc(SCCN3CCOCC3)n2-c2ccccc2)cc1	CDK2-cyclinA		
COc1ccc(-n2c(SC(C)C(=O)Nc3c(C)cccc3C)nnc2-c2ccc(O)cc2)cc1 (centres unmarked)		AKT1	
COc1ccccc1-n1c(SCCCCc2ccccc2)nnc1-c1cccc(N(C)C)c1			protein kinase against which the compound exhibits inhibitory activity (Table 3): MAPKAPK-3
CCOc1ccc(NCc2nnc(SCCN3CCOCC3)n2-c2ccccc2)cc1	FYN		
CCOCCSc1nnc(-c2ccccc2)[nH]1 [3-(2-ethoxyethylthio)-5-phenyl-4H-1,2,4-triazole]	3-(2-ethoxyethylthio)-5-phenyl-4H-1,2,4-triazole AURORA-A and FLT-3 and DYRK2		
COc1ccc(-n2c(CNc3ccc(F)cc3)nnc2SC)cc1	AKT1		
O=C1c2ccccc2C(=O)N1CCSc1nnc(-c2ccc([N+](=O)[O-])cc2)[nH]1 [2-(2-(5-(4-nitrophenyl)-4H-1,2,4-triazol-3-ylthio)ethyl)isoindoline-1,3-dione]	GSK3-α		
COc1ccccc1-n1c(SCC#N)nnc1-c1ccccc1O		AURORA-A	
CCOC(=O)c1sc(NC(=O)CSc2nnc(-c3ccc(OC)cc3)n2CCOC)nc1C		GSK3-β; also recorded: GSK3-α	
CCn1c(S)nnc1COc1ccc(Cl)c(C)c1 [5-((4-chloro-3-methylphenoxy)methyl)-4-ethyl-4H-1,2,4-triazole-3-thiol]		GSK3-α	
CCSc1nnc(-c2ccc(O)cc2)n1Cc1ccccc1 [4-(4-benzyl-5-(ethylthio)-4H-1,2,4-triazol-3-yl)phenol]	GSK3-β; also recorded: GSK3-α		
N#CCSc1nnc(-c2cccs2)[nH]1 [2-(5-(thiophen-2-yl)-4H-1,2,4-triazol-3-ylthio)acetonitrile]		DYRK2; also recorded: FLT-3; also recorded: AURORA-A	
CCN(CC)S(=O)(=O)c1ccc(-c2nnc(SCc3nnc(-c4ccccc4)o3)n2CC)cc1	GSK3-α		
O=C1c2ccccc2C(=O)N1CCSc1nnc(-c2cccc(C(F)(F)F)c2)[nH]1	GSK3-β and PKA and GSK3-α		

Compound	protein kinase against which the compound exhibits inhibitory activity (Table 3) [1]	Kinase (test compound 10 μM)	also measured
COc1ccc(NCc2nnc(SCc3ccccc3)n2-c2ccc(OC)cc2)cc1	PDGFRR-α and FLT-3 and FYN		
Cc1ccc(-n2c(SCC(=O)O)nnc2-c2ccc(Cl)cc2)cc1 [2-(5-(4-chlorophenyl)-4-p-tolyl-4H-1,2,4-triazol-3-ylthio)acetic acid]		DAPK1 and AKT1	
OCC(O)CSc1nnc(-c2cccc(C(F)(F)F)c2)[nH]1 (centres unmarked) [3-(5-(3-(trifluoromethyl)phenyl)-4H-1,2,4-triazol-3-ylthio)propane-1,2-diol]	AURORA-A; also recorded: FLT-3; also recorded: CHEK2		
CCSc1nnc(COc2ccc(CC)cc2)n1C [3-((4-ethylphenoxy)methyl)-5-(ethylthio)-4-methyl-4H-1,2,4-triazole]	AURORA-A		
Cc1ccc(NCc2nnc(SCC(=O)Nc3cccc(O)c3)n2Cc2ccco2)c(C)c1		CHEK2	
Cc1ccc(C(=O)NNC(=O)CSc2nnc(Cc3ccccc3)n2Cc2ccccc2)cc1	DAPK-1		
O=C(NCCSc1nnc(-c2ccccc2)[nH]1)c1ccccc1 [N-(2-(5-phenyl-4H-1,2,4-triazol-3-ylthio)ethyl)benzamide]	GSK3-β; also recorded: DYRK2; also recorded: AURORA-A		
O=C(CSc1nnc(-c2ccc([N+](=O)[O-])cc2)n1/C=C/CN1CCOCC1)N1CCOCC1		FYN	
c1ccc(CSc2nnc(CCC3CCCC3)n2Cc2cccnc2)cc1	GSK3-α		
c1csc(-c2nnc(SCCN3CCOCC3)[nH]2)c1 [4-(2-(5-(thiophen-2-yl)-4H-1,2,4-triazol-3-ylthio)ethyl)morpholine]	AURORA-A; also recorded: GSK3-β; also recorded: GSK3-α		
COc1ccc2nc(NC(=O)CSc3nnc(-c4ccc(O)cc4)n3CC3CCCO3)sc2c1 (centres unmarked)		GSK3-β; also recorded: PDGFRR-α; also recorded: GSK3-α	
COc1ccc(-n2c(S)nnc2COc2ccc3ccccc3c2)cc1		GSK3-α and CDK1	
Cc1cccc(-c2nnc(SCc3ccc(C(=O)O)cc3)[nH]2)c1 [4-((5-m-tolyl-4H-1,2,4-triazol-3-ylthio)methyl)benzoic acid]	FLT-3; also recorded: DYRK2; also recorded: AURORA-A		
Cn1c(SCC(=O)Nc2cccc(O)c2)nnc1-c1ccc(NS(C)(=O)=O)cc1		AURORA-A	
COC(=O)c1ccccc1NC(=O)CSc1nnc(CNc2ccc(F)cc2)n1CC1CCCO1 (centres unmarked)		AURORA-A	
Cn1c(SCc2ccc(Cl)cc2)nnc1-c1cccnc1 [3-(5-(4-chlorobenzylthio)-4-methyl-4H-1,2,4-triazol-3-yl)pyridine]	CHEK2		
COc1ccccc1-n1c(SCCN)nnc1-c1cccc(Cl)c1	PIM-1-KINASE		
Fc1ccc(NCc2nnc(S)n2Cc2ccccc2)cc1 [4-benzyl-5-((4-fluorophenylamino)methyl)-4H-1,2,4-triazole-3-thiol]		CHEK2	
COc1ccc(-c2nnc(SCc3ccccc3)n2-c2ccccc2)cc1 [3-(benzylthio)-5-(4-methoxyphenyl)-4-phenyl-4H-1,2,4-triazole]	INSR and SYK and PAK2		
COc1ccccc1-n1c(S)nnc1-c1cccnc1 [4-(2-methoxyphenyl)-5-(pyridin-3-yl)-4H-1,2,4-triazole-3-thiol]		AURORA-A	
Cc1ccc(NC(=O)CSc2nnc(-c3ccc(O)cc3)n2C)cc1		GSK3-β; also recorded: GSK3-α	
COC(=O)c1sc(NC(=O)CSc2nnc(-c3ccc(NS(C)(=O)=O)cc3)n2C)nc1C		GSK3-β; also recorded: GSK3-α	
O=C(CSc1nnc(-c2ccc(O)cc2)n1Cc1ccco1)NCc1ccc2c(c1)OCO2		CDK2-cyclinA and CDK5 and CDK2-cyclinE	
COc1ccc(-n2c(SCC#N)nnc2-c2cccnc2)cc1		AURORA-A	
Cn1c(SCC(=O)Nc2cccc(C(F)(F)F)c2)nnc1-c1ccc(O)cc1		GSK3-β and SRC and GSK3-α	
CCn1c(CNc2ccc(Cl)cc2)nnc1SCC(=O)Nc1ccccc1		c-TAK1	
